# Tests used:
# wachen Kaninchen = assay: Intraocular pressure (IOD) measurement in the conscious rabbit, Schioetz tonometer; assay type: in vivo; details: Dosis Prozent 2 (2 %ige Lösung, 100 µl instilled into one eye); for IOD-senkende Wirkung % Abnahme des IOD: decrease calculated from the baseline value; for IOD-senkende Wirkung Dauer: duration of the IOD-lowering effect
# From the text: Für diesen Versuch werden 2 bis 3 kg schwere Kaninchen beider Geschlechter verwendet. Der intraokulare Druck (IOD) wird mit einem Schioetz-Tonometer nach Hornhaut-Anästhesie mit 2 %iger Novocainlösung gemessen. Zur Herstellung einer 2 %igen Lösung wird eine erfindungsgemäße Verbindung unter Verwendung der stöchiometrischen Menge 0,1 n-HCI, bzw. deren Salz direkt in Wasser gelöst. Nach Ermittlung des Ausgangswertes werden 100 u.l der Lösung der Testverbindung in eines der Augen, das Vehikel in das andere Auge instilliert. Der IOD wird in bestimmten Zeitabständen, d.h. 0,5; 1, 2, 3, 4 und 5 Stunden gemessen. Die prozentuale Abnahme des IOD wird anhand des Ausgangswertes berechnet.
# (§1) Die bei diesem Modell für repräsentative erfindungsgemäße Verbindungen erhaltenen Ergebnisse sind in der nachfolgenden Tabelle aufgeführt: […]
# Meerschweinchenvorhof = assay: Positive inotropic activity, contraction force of isolated electrically stimulated guinea pig atrium; set-up: species or system Meerschweinchen; details: isolated left and right atria, Ringer-Lösung, 32 C, contraction force recorded 7 bis 10 Minuten
# From the text: Dafür wurde folgende Methode angewandt.
# 400 g schwere Meerschweinchen beider Geschlechter werden getötet, das Herz entnommen und bei Raumtemperatur in Ringer-Lösung eingebracht. Sowohl der linke als auch der rechte Vorhof werden dann isoliert, an einem Organhalter befestigt und in eine Ringer-Lösung enthaltendes, bei einer Temperatur von 32 C gehaltenes Bad eingebracht. In das Organbad läßt man ein Gemisch von 95 % O2 und 5 % C02 einperlen. Dann stimuliert man den Vorhof elektrisch. Die zu prüfende erfindungsgemäße Verbindung wird in Wasser zu einer Lösung bekannter Konzentration gelöst und dem Bad zugesetzt. Die Kontraktionskraft des Vorhofs wird 7 bis 10 Minuten lang über einen isometrischen Dehnungsmeßstreifen auf einem 4-Kanal-Schreiber von Nihon Kohden registriert. Die Aktivität wird gemäß den erhaltenen Daten als ECso ausgedrückt.
# Die bei diesem Modell für repräsentative erfindungsgemäße Verbindungen erhaltenen Ergebnisse sind in der nachfolgenden Tabelle aufgeführt.
# Katze = assay: Blood pressure lowering in the anaesthetised cat, femoral artery pressure; assay type: in vivo; details: for Abfall d. BD: Chloralose-Narkose; for Dauer: duration of the blood pressure lowering effect
# From the text: 3 bis 4 kg schwere Katzen beider Geschlechter werden mit Äther anästhesiert und unter Chloralose-Narkose (70 mgkg i.v.) gehalten. Sowohl die Oberschenkel-Arterie als auch die -Vene werden zur Aufzeichnung des Blutdrucks bzw. zur Verabreichung der Arzneimittel mit Kanülen versehen. Der Blutdruck in der Oberschenkelarterie wird über einen Druckaufnehmer Statham P 23 Db auf einem Nihon-Kohden-Schreiber für physiologische Zwecke ausgezeichnet. Die zu prüfende Verbindung wird in destilliertem Wasser gelöst und intravenös verabreicht. Der Blutdruckabfall und die Dauer der blutdrucksenkenden Wirkung werden notiert.
# as §1
smiles,measurement,setting,value
"C=C[C@@]1(C)CC(=O)[C@]2(O)[C@@]3(C)[C@@H](O)CCC(C)(C)[C@@H]3[C@H](OC(=O)CCN3CCCCC3)[C@H](OC(=O)OCC)[C@@]2(C)O1 [R6=[drawing], R7=COOC2H5 (the 4th table, row 2)]",IOD-senkende Wirkung % Abnahme des IOD,wachen Kaninchen,20%
same,IOD-senkende Wirkung Dauer,wachen Kaninchen,300 min
"C=C[C@@]1(C)CC(=O)[C@]2(O)[C@@]3(C)[C@@H](O)CCC(C)(C)[C@@H]3[C@H](OC(=O)CN3CCCCC3)[C@H](OC(=O)N(CC)CC)[C@@]2(C)O1 [R6=COCH2N[drawing], R7=CON(C2H5)2]",EC50,Meerschweinchenvorhof,0.44 µg/mL
"C=C[C@@]1(C)CC(=O)[C@]2(O)[C@@]3(C)[C@@H](O)CCC(C)(C)[C@@H]3[C@H](OC(=O)CCN3CCCCC3)[C@H](OC(=O)OCC)[C@@]2(C)O1 [R6=[drawing], R7=COOC2H5 (the 5th table, row 2)]",Abfall d. BD,Katze; Dosis 1 mg/kg intravenös,40
same,Dauer,Katze; Dosis 1 mg/kg intravenös,>20 min
"C=C[C@@]1(C)CC(=O)[C@]2(O)[C@@]3(C)[C@@H](O)CCC(C)(C)[C@@H]3[C@H](OC(=O)CCN3CCCCC3)[C@H](OC(=O)N(CC)CC)[C@@]2(C)O1 [R6=[drawing], R7=CON(C2H5)2 (the 5th table, row 3)]",Abfall d. BD,Katze; Dosis 1 mg/kg intravenös,20
same,Dauer,Katze; Dosis 1 mg/kg intravenös,60 min
"C=C[C@@]1(C)CC(=O)[C@]2(O)[C@@]3(C)[C@@H](O)CCC(C)(C)[C@@H]3[C@H](OC(=O)CCN3CCCCC3)[C@H](OC(=O)N(CC)CC)[C@@]2(C)O1 [R6=CO(CH2)2N[drawing], R7=CON(C2H5)2]",EC50,Meerschweinchenvorhof,0.79 µg/mL
"C=C[C@@]1(C)CC(=O)[C@]2(O)[C@@]3(C)[C@@H](O)CCC(C)(C)[C@@H]3[C@H](OC(=O)CCN3CCCCC3)[C@H](OC(=O)N(CC)CC)[C@@]2(C)O1 [R6=[drawing], R7=CON(C2H5)2 (the 4th table, row 3)]",IOD-senkende Wirkung % Abnahme des IOD,wachen Kaninchen,25%
same,IOD-senkende Wirkung Dauer,wachen Kaninchen,360 min
"C=C[C@@]1(C)CC(=O)[C@]2(O)[C@@]3(C)[C@@H](O)CCC(C)(C)[C@@H]3[C@H](OC(=O)CN3CCCCC3)[C@H](OC(=O)OCC)[C@@]2(C)O1 [R6=[drawing], R7=COOC2H5 (the 5th table, row 4)]",Abfall d. BD,Katze; Dosis 3 mg/kg intravenös,60
same,Dauer,Katze; Dosis 3 mg/kg intravenös,60 min
"C=C[C@@]1(C)CC(=O)[C@]2(O)[C@@]3(C)[C@@H](O)CCC(C)(C)[C@@H]3[C@H](OC(=O)CN3CCCCC3)[C@H](OC(=O)OCC)[C@@]2(C)O1 [R6=COCH2N[drawing], R7=COOC2H5]",EC50,Meerschweinchenvorhof,1.6 µg/mL
"C=C[C@@]1(C)CC(=O)[C@]2(O)[C@@]3(C)[C@@H](O)CCC(C)(C)[C@@H]3[C@H](OC(=O)CN3CCCCC3)[C@H](OC(=O)N(CC)CC)[C@@]2(C)O1 [R6=[drawing], R7=CON(C2H5)2 (the 5th table, row 5)]",Abfall d. BD,Katze; Dosis 1 mg/kg intravenös,50
same,Dauer,Katze; Dosis 1 mg/kg intravenös,20 min
"C=C[C@@]1(C)CC(=O)[C@]2(O)[C@@]3(C)[C@@H](O)CCC(C)(C)[C@@H]3[C@H](OC(=O)CN3CCCCC3)[C@H](OC(=O)OCC)[C@@]2(C)O1 [R6=[drawing], R7=COOC2H5 (the 4th table, row 4)]",IOD-senkende Wirkung % Abnahme des IOD,wachen Kaninchen,0%
"C=C[C@@]1(C)CC(=O)[C@]2(O)[C@@]3(C)[C@@H](O)CCC(C)(C)[C@@H]3[C@H](OC(=O)CN3CCCCC3)[C@H](OC(=O)N(CC)CC)[C@@]2(C)O1 [R6=[drawing], R7=CON(C2H5)2 (the 4th table, row 5)]",IOD-senkende Wirkung % Abnahme des IOD,wachen Kaninchen,20%
same,IOD-senkende Wirkung Dauer,wachen Kaninchen,420 min

# Reference: patent publication EP0315097A2, “Acyl labdane derivatives, process for their preparation and their use as medicines” (HOECHST AKTIENGESELLSCHAFT, priority 1987, dated 1989)
